Measurements as given in EP0745083B1, “2-HETEROARYL-5,11-DIHYDRO-6H-DIPYRIDO [3,2-b:2',3'-e][1,4]DIAZEPINES AND THEIR USE IN THE PREVENTION OR TREATMENT OF HIV INFECTION” (BOEHRINGER INGELHEIM PHARMACEUTICALS INC., priority 1994, dated 1995).

Columns and labels:
Assay type in all cases: biochemical, Human Immunodeficiency Virus (HIV-1)
[1] = molecular target: T1, HIV-1 RT wild type (WT) enzyme (Human immunodeficiency virus type 1 group M subtype B, UniProt P03367); experiment: Reverse Transcriptase (RT) Assay, wild type enzyme (RNA-dependent DNA polymerase activity); conditions: 1 µM compound, read-out: Reverse Transciptase Assay % inhibition (1 µM) WT
T1 construct: Reverse transcriptase enzyme from the LAV strain of Human Immunodeficiency Virus (HIV-1) (1) was isolated from the bacterial strain JM109; made in house; host or cells: E. coli JM109 (clone pBRTprt1+ in vector pIBI21, lac promoter)
Description: Utilizing the Reverse Transcriptase (RT) Assay described below, compounds can be tested for their ability to inhibit the RNA-dependent DNA polymerase activity of HIV-1 RT. Certain specific compounds described in the Examples which appear below, were so tested.
(§1) Among the enzymes for which Human Immunodeficiency Virus (HIV-1) encodes is a reverse transcriptase (1), so-named because it transcribes a DNA copy from an RNA template. This activity can be quantitatively measured in a cell-free enzyme assay, which has been previously described (2), and is based upon the observation that reverse transcriptase is able to use a synthetic template [poly r(C) primed with oligo d(G)] to transcribe a radio-labelled, acid-precipitable DNA strand utilizing ^3H-dGTP as a substrate. The assay described below utilizes the wild type (WT) enzyme, which is the predominant form of the enzyme observed in patients infected with HIV-1. Utilization of mutant RT eraymes (Y181C and Y181L, prepared by site-directed mutagenesis in which the tyrosine residue at codon 181 has been replaced by a cysteine or a leucine residue, respectively) and analogous assay conditions allows compounds to be evaluated for their effectiveness at inhibiting these mutant enzymes.
Reverse transcriptase enzyme from the LAV strain of Human Immunodeficiency Virus (HIV-1) (1) was isolated from the bacterial strain JM109 (3) expressing the DNA clone pBRTprt1+ (2) which is under the control of the lac promotor in the expression vector pIBI21 (4). An overnight culture grown in 2XYT medium (37°C, 225 rpm) (5) supplemented with 100 µg/mL ampicillin for positive selection is inoculated at a 1:40 dilution into M9 medium supplemented with 10µg/mL thiamine, 0.5% casamino acids, and 50 µg/mL ampicillin (5). The culture is incubated (37°C, 225 rpm) until it reaches an OD540 of 0.3-0.4. At that time the repressor inhibitor IPTG (isopropyl β-D-thiogalactopyranoside) is added to 0.5mM, and the mixture is incubated for 2 additional hours. Bacteria are pelleted, resuspended in a 50mM Tris, 0.6mM EDTA, 0.375M NaCl buffer and digested by the addition of lysozyme (1mg/mL) for 30 minutes on ice. The cells are lysed by the addition of 0.2% NP-40 and brought to 1M NaCl.
After removal of the insoluble debris by centrifugation, the protein is precipitated by the addition of 3 volumes of saturated aqueous ammonium sulfate. The enzyme is pelleted, resuspended in RT buffer (50mM Tris pH 7.5, 1mM EDTA, 5mM DTT, 0.1% NP-40, 0.1M NaCI, and 50% glycerol), and stored at -70°C for further use.
The 2X concentrated stock reaction mixture is aliquoted and stored at -20°C. The mixture is stable and thawed for use in each assay. This enzyme assay has been adapted to a 96 well microtiter plate system, and has been previously described (6). Tris buffer (50 mM, pH 7.4), vehicle (solvent diluted to match the compound dilution), or compounds in vehicle are dispensed into 96-well microtiter plates (10µL/well; 3 wells/ compound). The HIV-1 RT enzyme is thawed, diluted in 50mM Tris pH 7.4 so that fifteen µL of diluted enzyme contain 0.001 Unit (one unit is that amount of enzyme to transform 1 micromole of substrate per minute at 25°C), and fifteen µL are dispensed per well. Twenty µL of 0.12-0.5M EDTA are added to the first three wells of the microtiter plate. EDTA chelates the Mg^++ present and prevents reverse transcription. This group serves as background polymerization which is subtracted from all other groups. Twenty-five ul of the 2X reaction mixture are added to all wells and the assay is allowed to incubate at room temperature for 60 minutes. The assay is terminated by precipitating the DNA in each well with 50µL of 10% trichloracetic acid (TCA) (10% w/v) in sodium pyrophosphate (1% w/v). The microtiter plate is incubated for 15 minutes at 4°C and the precipitate is fixed onto #30 glass fiber paper (Schleicher & Schuell) using a Skatron semi-automatic harvester. […]

[2] = molecular target: T2, HIV-1 RT Y188L (Human immunodeficiency virus type 1 group M subtype B, UniProt P03367, Y787L); experiment: Reverse Transcriptase (RT) Assay, Y188L mutant enzyme; conditions: 1 µM compound
T2 construct: effective against the reverse transcriptase of many mutant viruses; made in house

[3] = molecular target: T3, HIV-1 RT Y181C (Human immunodeficiency virus type 1 group M subtype B, UniProt P03367, Y780C); experiment: Reverse Transcriptase (RT) Assay, Y181C mutant enzyme; conditions: 1 µM compound, read-out: Reverse Transciptase Assay % inhibition (1 µM) Y181C
T3 construct: Utilization of mutant RT eraymes (Y181C and Y181L, prepared by site-directed mutagenesis); made in house
Description: as §1
The 2X concentrated stock reaction mixture is aliquoted and stored at -20°C. The mixture is stable and thawed for use in each assay. This enzyme assay has been adapted to a 96 well microtiter plate system, and has been previously described (6). Tris buffer (50 mM, pH 7.4), vehicle (solvent diluted to match the compound dilution), or compounds in vehicle are dispensed into 96-well microtiter plates (10µL/well; 3 wells/ compound). The HIV-1 RT enzyme is thawed, diluted in 50mM Tris pH 7.4 so that fifteen µL of diluted enzyme contain 0.001 Unit (one unit is that amount of enzyme to transform 1 micromole of substrate per minute at 25°C), and fifteen µL are dispensed per well. Twenty µL of 0.12-0.5M EDTA are added to the first three wells of the microtiter plate. EDTA chelates the Mg^++ present and prevents reverse transcription. This group serves as background polymerization which is subtracted from all other groups. Twenty-five ul of the 2X reaction mixture are added to all wells and the assay is allowed to incubate at room temperature for 60 minutes. The assay is terminated by precipitating the DNA in each well with 50µL of 10% trichloracetic acid (TCA) (10% w/v) in sodium pyrophosphate (1% w/v). The microtiter plate is incubated for 15 minutes at 4°C and the precipitate is fixed onto #30 glass fiber paper (Schleicher & Schuell) using a Skatron semi-automatic harvester. The filters are then washed with additional TCA (5%) containing sodium pyrophosphate (1%), rinsed with aqueous ethanol (70%), dried, and transferred to scintillation vials (6). Each vial receives 2 mL of scintillation cocktail and is counted in a Beckman beta counter. The calculation for percent inhibition is as follows: % inhibition =(CPM Mean Test Value - CPM Mean Control Value X100)/(CPM Mean Control Value) [formula]

Compound | inhibition at 1 µM [1] | Reverse Transciptase Assay % inhibition (1 µM) Y188L [2] | inhibition at 1 µM [3] | Reverse Transciptase Assay % inhibition (1 µM) Y188L ([2]; 1 µM)
CN1C(=O)c2cccnc2N(C2CC2)c2nc(-c3cc[nH]c3)ccc21 [Example 25, 11-Cyclopropyl-5,11-dihydro-5-methyl-2-(3-pyrrolyl)-6H-dipyrido[3,2-b:2',3'-e][1,4]diazepin-6-one] | 92% | 80% | 86% | –
CCN1c2ncccc2C(=O)N(C)c2ccc(-c3cn[nH]c3)nc21 [Example 1, 5,11-Dihydro-11-ethyl-5-methyl-2-(4-pyrazolyl)-6H-dipyrido[3,2-b:2'3'-e][1,4]diazepin-6-one] | 97% | – | 96% | 77%
CCN1c2ncccc2C(=O)N(C)c2ccc(-c3cc[nH]c3)nc21 [Example 12, 5,11-Dihydro-11-ethyl-5-methyl-2-(3-pyrrolyl)-6H-dipyrido[3,2-b:2',3'-e][1,4]diazepin-6-one] | 95% | – | 91% | –
CN1C(=O)c2cccnc2N(C2CC2)c2nc(-c3cn[nH]c3)ccc21 [Example 6, 5,11-Dihydro-5-methyl-11-c-propyl-2-(4-pyrazolyl)-6H-dipyrido[3,2-b:2',3'-e][1,4]diazepin-6-one] | 94% | 84% | 87% | –
